How the values were obtained:
[1] = system: A549 K48; test: A549 K48 cell intensity (lysine-48 poly-ubiquitin accumulation, immunofluorescence); type: cell-based; settings: Homo sapiens
Experimental: Image-analysis is used to generate quantitative data from these assays that can be fit to a four-parameter sigmoid curve to derive IC50 values. Substrates of the ubiquitin-proteasome system, such as p53, are monitored after tumor cell lines are incubated with compounds for several hours. Accumulation of these proteins indicates an inhibition of proteasome-mediated degradation. Accumulation of lysine-48 chain linkage of poly-ubiquitin is also monitored by immunofluorescence as an indicator of ubiquitin-proteasome system inhibition. Both LC3 and SQSTM1 are mediators of autophagy. The localization and amounts of these proteins are monitored by immunofluorescence and report on the activity and inhibition of autophagy in response to p97 inhibition.

[2] = target: p97 (Homo sapiens (Human), UniProt P55072); test: P97 ATPase biochem assay (ADP Glo); type: biochemical; settings: read-out: p97 IC50
Sequence of p97 (P55072 whole entry): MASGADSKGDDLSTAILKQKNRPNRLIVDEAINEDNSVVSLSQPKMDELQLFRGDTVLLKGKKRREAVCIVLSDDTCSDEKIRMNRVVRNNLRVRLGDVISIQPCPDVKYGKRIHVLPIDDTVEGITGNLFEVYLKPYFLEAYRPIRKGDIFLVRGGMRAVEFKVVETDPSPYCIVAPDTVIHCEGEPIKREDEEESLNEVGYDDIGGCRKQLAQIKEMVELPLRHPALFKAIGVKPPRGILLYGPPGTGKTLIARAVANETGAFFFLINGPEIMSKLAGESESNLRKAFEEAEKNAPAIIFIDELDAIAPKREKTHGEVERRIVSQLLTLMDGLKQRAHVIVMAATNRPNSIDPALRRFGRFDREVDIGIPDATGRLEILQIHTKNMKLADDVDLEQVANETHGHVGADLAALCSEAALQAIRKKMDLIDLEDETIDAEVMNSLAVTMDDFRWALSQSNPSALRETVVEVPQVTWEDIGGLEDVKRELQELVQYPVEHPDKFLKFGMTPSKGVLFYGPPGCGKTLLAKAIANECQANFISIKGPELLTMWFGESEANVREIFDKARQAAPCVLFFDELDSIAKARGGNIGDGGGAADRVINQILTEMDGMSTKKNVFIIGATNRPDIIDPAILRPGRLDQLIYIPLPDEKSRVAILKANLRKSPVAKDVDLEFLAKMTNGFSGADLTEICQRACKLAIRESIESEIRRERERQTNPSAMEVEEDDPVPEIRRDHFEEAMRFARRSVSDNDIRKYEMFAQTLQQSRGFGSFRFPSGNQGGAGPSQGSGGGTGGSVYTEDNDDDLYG

Row | IC50 [1] [µM] | IC50 [2] [µM] | Structure (SMILES)
1 | < 10 | < 0.03 | COc1cc2c(C(N)=O)cccc2n1-c1nc2c(c(NCc3ccccc3)n1)COCC2 [1-[4-(benzylamino)-5H,7H,8H-pyrano[4,3-d]pyrimidin-2-yl]-2-methoxy-1H-indole-4-carboxamide]
2 | < 10 | < 0.03 | COc1cc2ccccc2n1-c1nc2c(c(NCc3ccccc3)n1)CCCC2 [N-benzyl-2-(2-methoxy-1H-indol-1-yl)-5,6,7,8-tetrahydroquinazolin-4-amine]
3 | < 10 | < 0.3 | COc1cc2ccccc2n1-c1nc2c(c(NCc3ccccc3)n1)COCC2 [N-benzyl-2-(2-methoxy-1H-indol-1-yl)-5H,7H,8H-pyrano[4,3-d]pyrimidin-4-amine]

The remaining lines, values behind:

Row | Structure (SMILES) | IC50 [1] [µM] | IC50 [2] [µM]
4 | CC(=O)NCc1cc2ccccc2n1-c1nc2c(c(NCc3ccccc3)n1)CCCC2 [N-({1-[4-(benzylamino)-5,6,7,8-tetrahydroquinazolin-2-yl]-1H-indol-2-yl}methyl)acetamide] | < 10 | < 0.1
5 | NCc1cc2ccccc2n1-c1nc2c(c(NCc3ccccc3)n1)CCCC2 [2-[2-(aminomethyl)-1H-indol-1-yl]-N-benzyl-5,6,7,8-tetrahydroquinazolin-4-amine] | < 10 | < 0.3
